In patent US11351178B2, “Selective HDAC6 inhibitors” (ITALFARMACO S.P.A., priority 2017, dated 2022):
Like-named read-outs stand apart in the source and are kept apart here.

What was measured:
Stability in rat plasma = type: in vitro ADME; conditions: after 4 hours, 37° C.
Method in brief: (§1)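 Compounds incubated at 37° C in rat or human plasma at 50 μM (UV/HPLC) or 1 or 2 μM (LC-MS/MS) for 0–4 h. Reaction stopped with acidified acetonitrile on ice; percent remaining versus initial amount and plasma half-life calculated.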

[1] = Stability to Phase I metabolism in rat S9 liver fraction; type: in vitro ADME; conditions: after 90 min, 37° C.
Method in brief: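 Phase I stability in human and rat hepatic S9 at 37 °C, sampled up to 90 min. Samples were stopped with acidified acetonitrile on ice, then quantified by HPLC-UV or LC-MS/MS.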

[2] = Stability in human plasma; type: in vitro ADME; conditions: after 4 hours, 37° C.
Method in brief: as §1

recombinant human HDAC6 = biological target: T1, recombinant human HDAC6 (Homo sapiens, UniProt Q9UBN7); assay: Enzymatic screening on recombinant human HDAC6; type: biochemical; conditions: read-out: HDAC6 IC50
T1 sequence (Q9UBN7 1-1215): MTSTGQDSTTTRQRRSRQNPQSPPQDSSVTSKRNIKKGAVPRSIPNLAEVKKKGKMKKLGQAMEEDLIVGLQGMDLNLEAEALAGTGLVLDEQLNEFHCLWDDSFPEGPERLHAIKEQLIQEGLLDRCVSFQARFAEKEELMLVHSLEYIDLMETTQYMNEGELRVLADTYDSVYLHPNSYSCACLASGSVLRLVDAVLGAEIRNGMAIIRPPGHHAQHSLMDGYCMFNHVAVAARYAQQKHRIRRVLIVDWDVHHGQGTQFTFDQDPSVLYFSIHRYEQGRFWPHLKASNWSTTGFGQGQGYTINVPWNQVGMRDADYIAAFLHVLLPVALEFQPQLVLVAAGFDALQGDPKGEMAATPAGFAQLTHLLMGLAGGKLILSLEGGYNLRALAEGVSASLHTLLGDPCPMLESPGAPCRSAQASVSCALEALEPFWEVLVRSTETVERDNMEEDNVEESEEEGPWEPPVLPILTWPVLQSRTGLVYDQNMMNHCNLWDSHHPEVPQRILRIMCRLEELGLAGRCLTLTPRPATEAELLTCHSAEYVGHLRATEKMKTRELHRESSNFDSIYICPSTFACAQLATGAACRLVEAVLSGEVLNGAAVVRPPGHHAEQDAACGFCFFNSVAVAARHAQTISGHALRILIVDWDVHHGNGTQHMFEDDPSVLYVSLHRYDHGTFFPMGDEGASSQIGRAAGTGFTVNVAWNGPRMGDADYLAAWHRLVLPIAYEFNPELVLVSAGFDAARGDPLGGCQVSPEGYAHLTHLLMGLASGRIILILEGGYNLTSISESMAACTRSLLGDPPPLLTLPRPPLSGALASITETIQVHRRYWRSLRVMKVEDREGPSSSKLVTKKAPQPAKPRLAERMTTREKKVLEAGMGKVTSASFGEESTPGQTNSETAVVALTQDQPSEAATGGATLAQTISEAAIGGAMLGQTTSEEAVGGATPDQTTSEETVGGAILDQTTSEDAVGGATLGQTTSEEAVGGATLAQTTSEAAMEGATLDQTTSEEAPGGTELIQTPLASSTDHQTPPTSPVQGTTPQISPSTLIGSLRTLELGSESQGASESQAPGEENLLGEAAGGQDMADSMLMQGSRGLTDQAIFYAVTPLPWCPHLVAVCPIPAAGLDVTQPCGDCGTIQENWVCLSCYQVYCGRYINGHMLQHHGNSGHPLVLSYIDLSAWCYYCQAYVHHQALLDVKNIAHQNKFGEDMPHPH
Method in brief: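 Step one: pre-incubate recombinant human HDAC with test compound at 30 °C, with duration set per isoform. Step two: add fluorogenic-type acetyl-lysine substrate (FLUOR DE LYS, its Green variant, or trifluoroacetyl-L-lysine), 2× concentrated in Tris-HCl pH 8 buffer with NaCl, Tween-20 and glycerol. Step three: react at 30 °C.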

HDAC1 = biological target: T2, HDAC1 (Homo sapiens, UniProt Q13547); assay: Enzymatic test HDAC1; type: biochemical; conditions: Table 3
T2 construct: purchased BPS 50051

HDAC5 = biological target: T3, HDAC5 (Homo sapiens, UniProt Q9UQL6); assay: Enzymatic test HDAC5; type: biochemical; conditions: Table 3
T3 construct: purchased BPS 50005
Protocol: After a period of incubation at 30° C. (incubation times vary for different isoforms and are shown in table 1) 25 μL of solution containing the substrate were added. As substrate, FLUOR DE LYS® deacetylase substrate (Enzo Life Sciences, cat #BML-K1104, FdL), FLUOR DE LYS®-Green substrate (Enzo Life Sciences, cat #BML-K1572 FdL_G) and trifluoroacetyl-L-lysine (Tfal)-2× concentrated solution in 25 mM Tris-HCl, pH 8, 130 mM NaCl 0.05% Tween-20 10% glycerol) were used. Following a reaction period at 30° C.

T3 sequence (Q9UQL6 656-1122 limits assumed): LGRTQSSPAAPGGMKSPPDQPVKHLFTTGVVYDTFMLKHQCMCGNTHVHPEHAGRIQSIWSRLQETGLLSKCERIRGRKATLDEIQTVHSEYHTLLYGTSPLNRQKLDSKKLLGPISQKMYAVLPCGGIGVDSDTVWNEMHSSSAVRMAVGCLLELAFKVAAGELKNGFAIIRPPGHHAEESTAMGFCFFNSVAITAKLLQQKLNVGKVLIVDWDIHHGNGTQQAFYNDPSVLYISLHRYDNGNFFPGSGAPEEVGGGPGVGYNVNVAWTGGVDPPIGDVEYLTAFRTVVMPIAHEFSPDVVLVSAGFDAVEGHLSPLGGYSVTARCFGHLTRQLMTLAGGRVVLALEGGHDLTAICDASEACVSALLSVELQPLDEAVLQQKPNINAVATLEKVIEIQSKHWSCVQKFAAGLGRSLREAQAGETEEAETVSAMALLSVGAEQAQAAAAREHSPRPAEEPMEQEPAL
T2 sequence (Q13547 whole entry): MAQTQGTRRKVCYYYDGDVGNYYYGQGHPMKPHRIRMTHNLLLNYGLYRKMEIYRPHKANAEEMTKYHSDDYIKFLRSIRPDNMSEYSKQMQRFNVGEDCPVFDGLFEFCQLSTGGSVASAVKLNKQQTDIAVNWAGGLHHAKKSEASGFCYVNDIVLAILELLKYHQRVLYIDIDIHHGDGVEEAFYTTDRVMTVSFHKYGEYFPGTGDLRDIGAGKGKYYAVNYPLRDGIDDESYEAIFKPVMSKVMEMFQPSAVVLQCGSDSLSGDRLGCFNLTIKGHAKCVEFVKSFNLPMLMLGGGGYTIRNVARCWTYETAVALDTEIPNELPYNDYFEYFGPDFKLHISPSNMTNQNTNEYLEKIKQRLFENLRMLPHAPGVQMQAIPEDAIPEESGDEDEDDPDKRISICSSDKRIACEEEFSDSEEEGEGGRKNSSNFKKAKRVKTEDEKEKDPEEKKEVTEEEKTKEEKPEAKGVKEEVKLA

Row | Structure (SMILES) | residual percentage in rat plasma (Stability in rat plasma) [%] | residual percentage in rat S9 fraction [1] [%] | residual percentage in human plasma [2] [%] | IC50 (recombinant human HDAC6; Table 2) [nM] | IC50 (HDAC1) [nM] | IC50 (recombinant human HDAC6; Table 3) [nM] | IC50 (HDAC5) [nM]
1 | Cn1c(Sc2c(F)cc(C(=O)NO)cc2F)nnc1-c1cccc(CN2CCCCCC2)c1 [comp. 167, 4-[[5-[3-(azepan-1-ylmethyl)phenyl]-4-methyl-1,2,4-triazol-3-yl]sulfanyl]-3,5-difluoro-benzenecarbohydroxamic acid] | 85 | 55 | 91 | 6 | – | – | –
2 | Cn1c(Sc2c(F)cc(C(=O)NO)cc2F)nnc1-c1cccnn1 [comp. 179, 3,5-difluoro-4-[(4-methyl-5-pyridazin-3-yl-1,2,4-triazol-3-yl)sulfanyl]benzenecarbohydroxamic acid] | 98 | 58 | 100 | 11 | – | – | –
3 | O=C(NO)c1ccc(Cn2nnnc2-c2cccs2)cc1 [comp. 8, N-hydroxy-4-((5-(thiophen-2-yl)-1H-tetrazol-1-yl)methyl)benzamide] | 62 | 82 | 91 | – | – | – | –
4 | O=C(NO)c1cc(F)c(Cn2nnnc2-c2cccs2)c(F)c1 [comp. 15, 3,5-difluoro-N-hydroxy-4-((5-(thiophen-2-yl)-1H-tetrazol-1-yl)methyl)benzamide] | 78 | 60 | 91 | 19 | 7090 | 19 | 706
5 | Nc1ccc(-c2nnn(Cc3c(F)cc(C(=O)NO)cc3F)n2)cc1 [comp. 171, 4-[[5-(4-aminophenyl)tetrazol-2-yl]methyl]-3,5-difluoro-benzenecarbohydroxamic acid] | 77 | 48 | 88 | 4 | – | – | –
6 | Cn1c(Sc2c(F)cc(C(=O)NO)cc2F)nnc1-c1ncccc1F [comp. 180, 3,5-difluoro-4-[[5-(3-fluoro-2-pyridyl)-4-methyl-1,2,4-triazol-3-yl]sulfanyl]benzenecarbohydroxamic acid] | 100 | 70 | 97 | 6 | – | – | –
7 | O=C(NO)c1cc(F)c(Cn2nnnc2-c2ncccn2)c(F)c1 [comp. 125, 3,5-difluoro-4-[(5-pyrimidin-2-yltetrazol-1-yl)methyl]benzenecarbohydroxamic acid] | 78 | 90 | 77 | 17 | – | – | –
8 | Cn1c(Sc2c(F)cc(C(=O)NO)cc2F)nnc1-c1ccc(CN2CCCCCC2)cc1 [comp. 168, 4-[[5-[4-(azepan-1-ylmethyl)phenyl]-4-methyl-1,2,4-triazol-3-yl]sulfanyl]-3,5-difluoro-benzenecarbohydroxamic acid] | – | – | – | 7 | – | – | –
9 | O=C(NO)c1cc(F)c(Cc2nnc(-c3ccncc3)s2)c(F)c1 [compound 195, 3,5-difluoro-4-[[5-(4-pyridyl)-1,3,4-thiadiazol-2-yl]methyl]benzenecarbohydroxamic acid] | 84 | 32 | 93 | 4 | – | – | –
